The text below walks through data of paper PMC5556109, “A combinatorial approach for the discovery of cytochrome P450 2D6 inhibitors from nature” (Scientific Reports, 2017).

Like-named read-outs stand apart in the source and are kept apart here.

In data set [1] the target is T1, CYP2D6 (Homo sapiens, UniProt P10635). The note with it: recombinant enzyme.
Procedure: (§1) Their CYP2D6 inhibitory potential was determined at a concentration of 100 µM in a final reaction volume of 50 µl. […] All compounds were dissolved in DMSO and the concentration thereof in the final reaction volume was 1%, according to the limitations indicated in the manufacturer’s protocol. […] To take into account the background luminescence, which may derive from a non-enzymatic conversion of ME-luciferin-EGE to luciferin, we included a ‘minus P450’ control that contained no CYP2D6 enzyme. In order to quantify CYP2D6 activity, we subtracted background values prior to calculating the percentage of total luminescence (% TL) obtained from the solvent control (set to 100%). Low % TL indicates low CYP2D6 activity.
(§2) In the three minus P450 control wells, 12.25 µl of the 4× reaction mixture was added. […] The plate was incubated for 10 minutes. The CYP2D6 enzyme reaction was initiated by the addition of 25 µl of 2× NADPH regeneration system (2.6 mM NADP^+, 6.6 mM glucose-6-phosphate, 6.6 mM MgCl2 and 0.8 U/ml glucose-6-phosphate dehydrogenase buffered in 0.1 mM sodium citrate at pH 5.5; Promega). After 45 minutes incubation, the enzyme reaction was stopped by the addition of 50 µl of the luciferin detection reagent, which contained also the esterase for the generation of the luminescence signal. The plate was incubated in the dark for 20 minutes in order to stabilize the signal measured by a Tecan infinite F200 PRO plate reader. […] The maximum allowed DMSO concentration in the final reaction mix was 1% according to the manufacturer’s protocol. The experiment was performed at room temperature and under prevention of excessive UV-light at minimum on two independent days (n = 2).
(§3) Concentration-dependent CYP2D6 inhibition assays were performed by preparing a 5-step dilution series of the 400 µM compound solutions. […] After this dilution step, 12.5 µl of each dilution was transferred to the assay plate. The assay was performed as described above. The DMSO concentration was kept constant for all concentrations with a maximum of 1%. The experiments were performed on three independent experimental days (n = 3).
(§4) Raw data obtained from Tecan infinite F200 PRO plate reader was processed by calculating total luminescence (% of untreated control) by applying the formula: raw data − (background luminescence) * 100/mean of negative control.
Data set [2] deals with P450-Glo detection reaction (unspecific esterase and modified firefly-luciferase).
Source text: (§5) This detection-reagent consists of i) a detergent that stops the CYP2D6 enzyme reaction, ii) an unspecific esterase that continuously releases luciferin and iii) a modified firefly-luciferase, thus a stable luminogenic signal is generated, which can be quantified by a luminometer (Fig. 1). The detection reaction is incorporated in the P450-Glo CYP2D6 inhibition assay. However, we implemented additional controls for unspecific interactions of the test compounds with the detection reaction. For this purpose, the previously established luminescence quenching control reaction reported by Modarai et al.[9] was adapted to our requirements with modifications for the use of larger sample volumes. In addition, Modarai et al. converted ME-luciferin-EGE to luciferin in the absence of a test compound and then evaluated the inhibition of the luciferase reaction.We conducted the control step by using pure luciferin-EGE, esterase, luciferase and a test compound in the absence of CYP2D6 (Supplementary Table S4).
(§6) The quantification of the P450-Glo detection reaction was performed by subtracting the background values prior to calculating the percentage of total luminescence (% TL) based on the total luminescence obtained from the solvent control (set to 100%).
(§7) We then added 12.5 µl 4× reaction mixture (5 µl 1.5 mM luciferin-EGE stock solution, 500 µl 1 M KPO4 buffer and 745 µl luciferase free water) to the wells. Finally, 25 µl of the 2× NADPH regeneration system was added. In order to initiate the detection reaction, 50 µl of the reconstituted luciferin detection reagent containing the esterase was added to the samples, positive and solvent control wells. This step was followed by 20 minutes incubation in the dark for signal stabilization. In the wells reserved for background luminescence, luciferase-free water was added. Measurements were performed on a Tecan infinite F200 PRO plate reader on two independent days (n = 2) at minimum.
as §4
(§8) A one-way ANOVA followed by Dunnett’s multiple comparisons test was performed. […] A p-value of < 0.05 was used to indicate significance.
For data set [3], the target named is T1, CYP2D6. The data set is described as follows: in vitro. The following applies: recombinant enzyme, pH 7.4.
Procedure: as §1, §2, §3, §4
Data set [4] concerns the target T1, CYP2D6. The data set can be described thus: P450-Glo CYP2D6 inhibition assay (bioluminescence-based; pre-screen at 100 µM and IC50 determination). The following applies: for classification of CYP2D6 inhibition (actives / weak actives / inactives): ranked by IC50, inactives from pre-screen at 100 µM.
Procedure: as §1, §2, §3, §4
Data set [5] relates to CYP2D6. Also on record: method as in earlier work. The note with it: ME-luciferin-EGE as CYP2D6 substrate; cited from earlier work.
Data set [6] relates to firefly-luciferase. The following applies: cited from earlier work.
For data set [7], the system named is CYP2D6. The data set is described as follows: CYP2D6 inhibition of virtual hits already reported in the literature. The text has this: the hits according to non-available CYP2D6 inhibition data, plant origin and availability. The
Data set [8] has as its system CYP2D6. The note with it: Supplementary Table S2, supplementary reference list, cited from earlier work; for IC50: read-out: Inhibitory potency IC50.
The test system of data set [9] is P450-Glo detection reaction (unspecific esterase and modified firefly-luciferase). The data set is described as follows: P450-Glo detection reaction control (luciferin-EGE, esterase, luciferase, test compound, no CYP2D6).
Source text: as §5, §6, §7, §4, §8
Where [10] appears, read: authors' classification of the literature value, Supplementary Table S2.

T1 sequence (P10635 whole entry): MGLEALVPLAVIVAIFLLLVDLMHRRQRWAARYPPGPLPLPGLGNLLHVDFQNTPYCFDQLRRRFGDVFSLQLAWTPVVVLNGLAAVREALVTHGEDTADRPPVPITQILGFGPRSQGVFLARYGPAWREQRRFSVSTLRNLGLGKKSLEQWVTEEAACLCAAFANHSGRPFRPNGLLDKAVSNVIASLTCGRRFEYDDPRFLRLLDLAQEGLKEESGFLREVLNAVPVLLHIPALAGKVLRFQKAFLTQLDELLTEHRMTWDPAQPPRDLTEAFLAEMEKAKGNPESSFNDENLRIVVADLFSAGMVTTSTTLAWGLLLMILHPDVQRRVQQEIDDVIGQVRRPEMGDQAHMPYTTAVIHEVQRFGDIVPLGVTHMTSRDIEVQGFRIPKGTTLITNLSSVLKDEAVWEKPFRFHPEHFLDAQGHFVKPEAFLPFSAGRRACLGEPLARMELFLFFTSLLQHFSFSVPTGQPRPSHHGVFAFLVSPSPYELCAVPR

The inhibition is the change of the read-out against control, counted positive when it falls. As usually defined, the IC50 is the concentration that inhibits the measured activity by half. As to `CN1Cc2c(ccc3c2OCO3)[C@@H]2[C@H]1c1cc3c(cc1C[C@@H]2O)OCO3` [Compound 21, (+)-Chelidonine], in data set [1], the “classification of CYP2D6 inhibition (actives / weak actives / inactives)” value was “actives (key: actives: those compounds were classified as active, which exhibited CYP2D6 IC50 values up to 10 µM; inactives showed less than 50 % total luminescence at a concentration of 100 µM)”. Besides, the “total luminescence in CYP2D6 inhibition pre-screen” value in [1] (100 µM) is listed as 0.45 % TL. Also, the “P450-Glo Detection Reaction MEAN (total luminescence)” value in data set [2] amounted to 98.77 % TL. Moreover, the inhibition at 100 µM in data set [3] worked out at 99.5%. Moreover, in data set [4], 0.0225 µM corresponded to half-maximal inhibition (IC50).

Consider `COc1ccc2nc(C3=NC(C(=O)OCCO)CS3)sc2c1` (stereo not drawn) [ME-luciferin-EGE, methoxy-luciferin-ethylene glycol ester], for which the “turnover number (kcat)” value in data set [5] was 0.118 s⁻¹.

Consider `Oc1ccc(/C=C/c2cc(O)cc(O)c2)cc1` [Compound 24, Resveratrol, reference compound], for which, in data set [6], the inhibition of firefly-luciferase result is given as “lower micromolar range”. Moreover, in data set [4], the “classification of CYP2D6 inhibition (actives / weak actives / inactives)” value is “weak actives”.

In the case of `COc1cc2c(cc1O)CCN1Cc3c(ccc(OC)c3OC)C[C@H]21` [Corypalmine], the “Classification of literature CYP2D6 inhibition” value in data set [7] (setting [10]) is “active”. For the same compound, in data set [8], the IC50 is 1 to 10 µM.

Regarding `COc1ccc2c(c1OC)C(=O)O[C@@H]2[C@H]1c2c(cc3c(c2OC)OCO3)CCN1C` [Noscapine], the “Classification of literature CYP2D6 inhibition” value in data set [7] (setting [10]) is “inactive”. The “Inhibitory potency (IC50/Ki not specified)” value in data set [8] was more than 100 µM.

With `COC1=C[C@@H]2[C@@H]3Cc4ccc(OC)c(O)c4[C@]2(CCN3C)CC1=O` [Sinomenine], the “Classification of literature CYP2D6 inhibition” value in [7] (setting [10]) is “inactive”. Besides, in [8] (at 50 µM), the “Inhibitory potency” value is reported as “no inhibition”.

As to `COC(=O)C1=CO[C@@H](C)[C@@H]2CN3CC[C@@]4(C(=O)Nc5ccccc54)[C@@H]3C[C@H]12` [Compound 2, Isopteropodine], the inhibition at 100 µM in data set [3] amounted to 56.8%. The “P450-Glo Detection Reaction MEAN Diff. (inhibition of the detection reaction)” value in data set [9] (50 µM test compound, difference to DMSO 1% control) came out at 7.57%. Also, the “P450-Glo Detection Reaction MEAN (total luminescence)” value in [9] (50 µM test compound, no CYP2D6, DMSO control = 100) came to 92.43 % TL. For the same compound, in [9] (50 µM, one-way ANOVA, Dunnett's test vs DMSO control), the “p < 0.05 (significant inhibition of the P450-Glo detection reaction)” value is “Yes”. Further, in data set [4], 89.1 µM corresponded to half-maximal inhibition (IC50) and the “classification of CYP2D6 inhibition (actives / weak actives / inactives)” value is on record as “weak actives”. In addition, the “total luminescence in CYP2D6 inhibition pre-screen” value in [4] (100 µM test compound, solvent control = 100%, low % TL = low CYP2D6 activity) turned out to be 43.22 % TL.

With `COc1ccc(Cc2nccc3cc(OC)c(OC)cc23)cc1OC` [Compound 6, Papaverine], the “classification of CYP2D6 inhibition (actives / weak actives / inactives)” value in [1] was “actives (key: actives: those compounds were classified as active, which exhibited CYP2D6 IC50 values up to 10 µM; inactives showed less than 50 % total luminescence at a concentration of 100 µM)”. For the same compound, the “P450-Glo Detection Reaction MEAN (total luminescence)” value in data set [2] stood at 82.48 % TL. Further, the IC50 in data set [4] amounted to 7.02 µM.

Consider `CCC12C=CCN3CC[C@@]4(c5ccc(OC)cc5N(C)[C@H]4[C@@](O)(C(=O)OC)[C@@H]1OC(C)=O)[C@@H]32` (stereo partly drawn) [Vindoline], for which, in data set [7] (setting [10]), the “Classification of literature CYP2D6 inhibition” value is “active”. The IC50 in data set [8] was 15.9 µM.

In the case of `COc1cc2c(cc1OC)[C@H]1[C@@H](C)c3ccc(OC)c(OC)c3CN1CC2` [Corydaline], the “Classification of literature CYP2D6 inhibition” value is “weak” in data set [7] (setting [10]) and “inactive” in [7] (w/o preincubation, authors' classification of the literature value, Supplementary Table S2). Moreover, the IC50 in data set [8] (w/ preincubation) is 64.5 ± 9.8 µM; in data set [8] (w/o preincubation), 116 ± 7.6 µM.

Take `COc1cc2c(cc1OC)[C@@H]1Cc3ccc(OC)c(OC)c3CN1CC2` [Tetrahydropalmatine]: in data set [7] (setting [10]), the “Classification of literature CYP2D6 inhibition” value was “active”. Further, the IC50 in data set [8] was 3.04 ± 0.26 µM.

With `COc1cc2c(cc1OC)-c1cc3ccc(OC)c(OC)c3c[n+]1CC2` [Palmatine chloride], in data set [7], the “Classification of literature CYP2D6 inhibition” value was “weak”. Moreover, the “Inhibitory potency (IC50/Ki not specified)” value in data set [8] is 92.6 µM.

As usually defined, the Ki is a dissociation constant, usually derived from enzyme kinetics or from competition with a known ligand. As to `CN1CCc2cc3c(cc2C(=O)Cc2ccc4c(c2C1)OCO4)OCO3` [Protopine], in [7], the “Classification of literature CYP2D6 inhibition” value was “active”. Moreover, the Ki in data set [8] (read-out: Inhibitory potency Ki) is 0.078 µM.
